PubChem BioAssay (NCI)
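Five compound concentrations were applied to cells in 96-well plates for 48 hours; endpoints were derived by simple linear interpolation of the resulting dose-response curve. TGI marks complete inhibition of growth.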

How the values were obtained:
Assay in all cases: NCI anticancer screen, dose series, 48 h
A549 NSCLC = system: A549 NSCLC
NCI-H23 lung = system: NCI-H23 lung
HL-60(TB) leukemia = system: HL-60(TB) leukemia
SF-539 CNS = system: SF-539 CNS
ACHN renal = system: ACHN renal
KM12 colon = system: KM12 colon
MCF7 breast = system: MCF7 breast
SK-OV-3 ovarian = system: SK-OV-3 ovarian
MDA-MB-435 = system: MDA-MB-435
OVCAR-8 ovarian = system: OVCAR-8 ovarian
BT-549 breast = system: BT-549 breast
NCI-H522 lung = system: NCI-H522 lung
MDA-N = system: MDA-N
SNB-75 CNS = system: SNB-75 CNS
SK-MEL-5 melanoma = system: SK-MEL-5 melanoma
OVCAR-4 ovarian = system: OVCAR-4 ovarian
MALME-3M melanoma = system: MALME-3M melanoma

| SMILES | TGI (A549 NSCLC) | TGI (NCI-H23 lung) | TGI (HL-60(TB) leukemia) | TGI (SF-539 CNS) | TGI (ACHN renal) | TGI (KM12 colon) | TGI (MCF7 breast) | TGI (SK-OV-3 ovarian) | TGI (MDA-MB-435) | TGI (OVCAR-8 ovarian) | TGI (BT-549 breast) | TGI (NCI-H522 lung) | TGI (MDA-N) | TGI (SNB-75 CNS) | TGI (SK-MEL-5 melanoma) | TGI (OVCAR-4 ovarian) | TGI (MALME-3M melanoma) |
| --- | --- | --- | --- | --- | --- | --- | --- | --- | --- | --- | --- | --- | --- | --- | --- | --- | --- |
| CSc1cc(Cl)c(C(=O)Nc2ccccc2)cc1S(=O)(=O)n1cc[nH]c1=O | > 100 µM | > 100 µM | > 100 µM | > 100 µM | > 100 µM | > 100 µM | > 100 µM | > 100 µM | > 100 µM | > 100 µM | > 100 µM | > 100 µM | > 100 µM | > 100 µM | > 100 µM | > 100 µM | > 100 µM |
| CC1(C)C2CCC1(C)C(NC(=O)COCCOCC(N)=O)C2 (stereo not drawn) | > 100 µM | > 100 µM | > 100 µM | > 100 µM | > 100 µM | > 100 µM | > 100 µM | > 100 µM | > 100 µM | > 100 µM | > 100 µM | > 100 µM | > 100 µM | > 100 µM | > 100 µM | > 100 µM | > 100 µM |
| O=C1CSc2ccnc(=O)n21 | > 100 µM | > 100 µM | > 100 µM | > 100 µM | > 100 µM | – | > 100 µM | > 100 µM | > 100 µM | > 100 µM | > 100 µM | > 100 µM | > 100 µM | > 100 µM | > 100 µM | > 100 µM | > 100 µM |
| NC(N)=NS(=O)(=O)c1ccc(NCc2cccc3c(=O)c4ccc(Cl)cc4oc23)cc1 | > 25 µM | > 21.8 µM | 5.94 µM | > 13.1 µM | > 13.6 µM | > 25 µM | > 25 µM | > 17.3 µM | > 25 µM | > 13.7 µM | > 14.4 µM | > 7.85 µM | > 19.1 µM | 8.64 µM | > 16.5 µM | > 18 µM | > 19.2 µM |
| COP(=O)(OC)[C@@](O)(c1ccccc1)[C@@H](O)[C@@H](O)c1ccccc1 | > 100 µM | > 100 µM | > 100 µM | > 100 µM | > 100 µM | > 100 µM | 83.8 µM | > 100 µM | > 100 µM | > 100 µM | > 100 µM | > 100 µM | > 100 µM | > 100 µM | > 100 µM | > 100 µM | > 100 µM |
| CCc1cccc(CC)c1Nc1nc(-c2ccccc2-c2ccccc2)cs1 | > 100 µM | > 100 µM | > 100 µM | > 100 µM | > 100 µM | > 100 µM | > 100 µM | > 100 µM | > 100 µM | – | 84.8 µM | > 100 µM | > 100 µM | > 100 µM | > 100 µM | > 100 µM | > 100 µM |
| CC(C)(C(=O)N(C(=O)N1CCN(c2ccccc2)CC1)S(=O)(=O)c1ccccc1)c1ccc(Cl)cc1 | > 100 µM | > 100 µM | > 100 µM | > 100 µM | > 100 µM | > 100 µM | > 100 µM | > 100 µM | > 100 µM | > 100 µM | > 100 µM | 26.3 µM | > 100 µM | > 100 µM | > 100 µM | > 100 µM | > 100 µM |
| Cc1ccc2c(n1)C(=O)c1cc(C)c(C)cc1C2=O | > 100 µM | > 100 µM | > 100 µM | > 100 µM | > 100 µM | > 100 µM | > 100 µM | > 100 µM | > 100 µM | > 100 µM | > 100 µM | 56.8 µM | > 100 µM | 73 µM | 79.1 µM | > 100 µM | > 100 µM |
| Cc1cc(NS(=O)(=O)c2ccc(NC(=O)c3ccc4nc5ccccc5c(Nc5ccc(S(N)(=O)=O)cc5)c4c3)cc2)no1 | 66.3 µM | 95.2 µM | 56.2 µM | 80.9 µM | 45.6 µM | 59.1 µM | 37.1 µM | > 100 µM | 45.3 µM | 66 µM | 67.5 µM | 37.7 µM | 66 µM | 94.7 µM | 41 µM | 89.9 µM | 61.8 µM |
| CCCCCCCCCCCCCCCCNc1nc(=O)n(C2CC(O)C(COP(=O)(O)OC3CC(n4cc(F)c(=O)[nH]c4=O)OC3CO)O2)cc1F (stereo not drawn) | 26.4 µM | 19.4 µM | 19 µM | 0.956 µM | > 100 µM | > 81.4 µM | 97.1 µM | > 100 µM | > 100 µM | 44.2 µM | 35.3 µM | 55.4 µM | > 100 µM | > 68.8 µM | > 41.9 µM | > 100 µM | > 72.1 µM |
